From US7498161B2 (priority 2003, dated 2009) come the findings set out here.

Each structure is given as a SMILES string.

For data set [1], the system named is C8161 cells. Type of data set: cell-based, human. The following applies: 50 μM CB1954 alone.
For data set [2], the system named is A2780 xenograft. Put plainly: Scheduling experiment: virus with or without CB1954, tumour volume in A2780 xenografts. It counts as in vivo, athymic nude mice. The following applies: CB1954 alone, no virus, 80 mg/kg intra-peritoneal. The procedure:
The inventors proceeded to investigate two doses of the virus in combination with CB1954. The doses selected were 10^5 PFU and 10^6 PFU. Both these doses caused some tumour growth delay in earlier experiments.
The prodrug is given as an 80 mg/kg intra-peritoneal injection, after dissolving the powdered form in 10% acetone and then making up the volume with peanut oil.
Mice were randomized into treatment groups (treatment regimes shown in Table 2) of 3 animals when tumour diameters were approximately 5 mm (tumour volume […]).
(§1) The treatment groups were administered with a single direct intratumoural injection of the virus and dose determined for that group. The virus was diluted PBS+10% serum. ‘No virus’ control groups received an intratumoural injection of 100 μl of PBS+10% serum. This day was designated as Experimental Day 0.
(§2) Injections of CB1954 were given to the appropriate groups at days 2, 10 and 15. A dose of 80 mg/kg—the equivalent of approx. 2 mg per mouse—was given. The powdered form of the CB1954 drug (from Sigma) was dissolved in acetone to 10% of the final volume (10 μl per 2 mg). The volume was then made up to 2 mg CB1954 in 100 μl using peanut oil. A syringe was used to mix the drug as peanut oil is thick and viscous. The drug was made up fresh every time.
The appropriate groups were then injected intra-peritoneal with this solution. […]

Data set [3] can be described thus: Scheduling experiment: tolerability of the injections (weight, behaviour). Type of data set: in vivo, athymic nude mice. The note with it: 80 mg/kg intra-peritoneal in 10% acetone/peanut oil. The protocol:
FIG. 26. Weight (as a measurement of health) in athymic nude mice with A2780 xenograft treated with either HSV 1790, HSV 1716, CB 1954 or a combination of them.
as §1
Some tumours bleed slightly after injection but not to a great degree. […] In all the tumours that bleed slightly, the following day the healing process had begun and within 3-5 days there was little evidence of any puncture wound on any tumour.
as §2
The appropriate groups were then injected intra-peritoneal with this solution. Control groups which were not receiving drug were injected intra-peritoneal with a 100 μl solution of 10% acetone in peanut oil.

On to `NC(=O)c1cc(N2CC2)c([N+](=O)[O-])cc1[N+](=O)[O-]` [CB1954, 5-aziridin-1-yl-2,4-dinitrobenzamide], for which, in data set [1], the effect on cells entry is listed as “no effect”. In data set [2], the “effect on tumour growth” value is recorded as “little effect on tumour growth”. In data set [3], the behaviour after injection entry was “slightly lethargic for a short period after the injection”, the body weight entry is on record as “did not lose any body weight” and the “swelling or irritation at site of injection” value is on record as “No swelling or irritation at the site of injection”.
